From patent publication US20240327412A1, “FACTOR XIIA INHIBITORS” (KALVISTA PHARMACEUTICALS LIMITED, priority 2021, published 2024)

How the values were obtained:
[1] = biological target: T1, Human Factor XIIa (Homo sapiens, UniProt P00748); test: Determination of FXIIa inhibition (fluorogenic substrate H-DPro-Phe-Arg-AFC, IC50 assay); assay type: biochemical; conditions: substrate at Km concentration, 25° C.; category scale; read-out: Human FXII IC50 (nm)
T1 construct: Proteolytic cleavage of FXII to heavy and light chains of FXIIa dramatically increases catalytic activity; purchased Enzyme Research Laboratories
T1 sequence (P00748 373-615 limits assumed): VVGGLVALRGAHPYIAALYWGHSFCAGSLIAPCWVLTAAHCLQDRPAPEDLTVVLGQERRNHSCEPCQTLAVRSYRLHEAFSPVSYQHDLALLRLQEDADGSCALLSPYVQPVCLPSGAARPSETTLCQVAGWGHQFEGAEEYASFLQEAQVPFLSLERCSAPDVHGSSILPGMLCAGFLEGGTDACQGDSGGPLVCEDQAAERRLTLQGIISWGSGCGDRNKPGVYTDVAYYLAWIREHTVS
T1 sequence (P00748 20-372 partner limits assumed): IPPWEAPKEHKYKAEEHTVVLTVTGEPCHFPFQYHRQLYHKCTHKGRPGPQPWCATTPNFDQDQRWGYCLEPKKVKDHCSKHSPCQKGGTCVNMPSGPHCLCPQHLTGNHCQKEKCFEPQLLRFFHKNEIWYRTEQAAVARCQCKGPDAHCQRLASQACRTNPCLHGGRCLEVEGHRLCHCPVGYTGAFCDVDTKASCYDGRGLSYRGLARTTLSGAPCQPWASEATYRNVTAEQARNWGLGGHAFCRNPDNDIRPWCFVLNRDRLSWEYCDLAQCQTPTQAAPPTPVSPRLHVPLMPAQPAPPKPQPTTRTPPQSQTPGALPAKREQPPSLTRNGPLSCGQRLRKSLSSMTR
Summary of the method: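 Human FXIIa incubated at 25° C. with fluorogenic H-DPro-Phe-Arg-AFC at its Km concentration plus varying compound levels. Linear fluorescence increase over 5 min taken as % activity; IC50 is concentration halving uninhibited activity.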

[2] = biological target: Plasmin (Homo sapiens, UniProt P00747); test: Related protease inhibition: Plasmin (fluorogenic substrate at Km); assay type: biochemical; conditions: class symbols per Table 18
Chain of Plasmin (P00747 581-810 limits assumed): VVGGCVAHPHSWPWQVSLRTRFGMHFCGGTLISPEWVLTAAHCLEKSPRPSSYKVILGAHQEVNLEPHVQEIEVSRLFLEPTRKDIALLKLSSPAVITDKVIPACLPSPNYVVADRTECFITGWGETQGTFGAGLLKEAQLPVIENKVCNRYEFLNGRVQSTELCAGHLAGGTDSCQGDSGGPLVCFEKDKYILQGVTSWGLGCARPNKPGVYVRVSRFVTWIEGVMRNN
Chain of Plasmin (P00747 97-580 partner limits assumed): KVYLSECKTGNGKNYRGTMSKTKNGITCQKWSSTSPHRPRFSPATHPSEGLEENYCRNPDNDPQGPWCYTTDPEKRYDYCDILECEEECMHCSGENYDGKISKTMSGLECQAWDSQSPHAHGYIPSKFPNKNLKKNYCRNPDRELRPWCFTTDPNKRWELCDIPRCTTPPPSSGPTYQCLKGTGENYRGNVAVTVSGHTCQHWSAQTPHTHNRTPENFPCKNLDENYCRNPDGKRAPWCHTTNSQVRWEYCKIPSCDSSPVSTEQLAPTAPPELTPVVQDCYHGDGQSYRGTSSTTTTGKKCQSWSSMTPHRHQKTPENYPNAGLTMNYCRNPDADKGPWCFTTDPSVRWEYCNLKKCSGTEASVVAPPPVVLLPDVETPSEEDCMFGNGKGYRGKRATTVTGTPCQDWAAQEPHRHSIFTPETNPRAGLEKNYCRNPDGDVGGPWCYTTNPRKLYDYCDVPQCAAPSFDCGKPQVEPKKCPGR
Description: (§1) In vitro inhibition of related proteases was determined using an IC50 assay based on standard literature methods (see e.g. Shori et al., Biochem. Pharmacol., 1992, 43, 1209; Bouckaert et al., European Journal of Medicinal Chemistry 110 (2016) 181). Human serine protease enzyme Plasma Kallikrein, KLK1, FXa, Plasmin, Thrombin and Trypsin were assayed for enzymatic activity using an appropriate fluorogenic substrate at Km concentration, FXIa at fixed substrate concentration of 100 μM and various concentrations of the test compound. Protease activity was measured by monitoring the accumulation of liberated fluorescence from the substrate over 5 min at 25° C. The linear rate of fluorescence increase per minute was expressed as percentage (%) activity. IC50 values were calculated as the concentration of inhibitor giving 50% inhibition of the uninhibited enzyme activity (100%).

[3] = biological target: Trypsin (Homo sapiens, UniProt P07477); test: Related protease inhibition: Trypsin (fluorogenic substrate at Km); assay type: biochemical; conditions: class symbols per Table 18
Description: as §1

[4] = biological target: T2, Plasma Kallikrein (Homo sapiens, UniProt P03952); test: Related protease inhibition: Plasma Kallikrein (fluorogenic substrate at Km); assay type: biochemical; conditions: class symbols per Table 18, read-out: IC50 (human PKal)
T2 construct: FXIIa converts plasma prekallikrein (PK) to plasma kallikrein (PKa)
T2 sequence (P03952 391-638 limits assumed): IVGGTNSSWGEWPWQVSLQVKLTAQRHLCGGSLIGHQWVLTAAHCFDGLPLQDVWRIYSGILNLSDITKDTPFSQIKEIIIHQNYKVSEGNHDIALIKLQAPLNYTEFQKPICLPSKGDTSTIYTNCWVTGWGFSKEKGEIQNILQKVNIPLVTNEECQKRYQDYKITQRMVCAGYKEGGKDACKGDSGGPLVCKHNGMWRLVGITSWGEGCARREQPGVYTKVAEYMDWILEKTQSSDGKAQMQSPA
T2 sequence (P03952 20-390 partner limits assumed): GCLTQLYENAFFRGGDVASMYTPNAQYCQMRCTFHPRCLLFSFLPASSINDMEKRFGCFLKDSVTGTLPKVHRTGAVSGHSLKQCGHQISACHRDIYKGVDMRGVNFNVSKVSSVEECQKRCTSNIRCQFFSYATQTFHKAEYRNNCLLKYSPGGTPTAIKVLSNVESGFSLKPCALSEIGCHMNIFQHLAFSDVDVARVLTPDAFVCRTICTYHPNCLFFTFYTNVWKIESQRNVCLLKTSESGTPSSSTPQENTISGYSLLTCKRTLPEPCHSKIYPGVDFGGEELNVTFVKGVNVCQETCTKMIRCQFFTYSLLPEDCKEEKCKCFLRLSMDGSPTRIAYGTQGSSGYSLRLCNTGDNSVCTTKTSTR
Summary of the method: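 Protease activity against a fluorogenic substrate (Km level; 100 μM fixed for FXIa) is measured at 25° C across various inhibitor concentrations. Liberated fluorescence is tracked for 5 min, and slopes are expressed relative to uninhibited enzyme to give the IC50.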

[5] = biological target: KLK1 (Homo sapiens, UniProt P06870); test: Related protease inhibition: KLK1 (fluorogenic substrate at Km); assay type: biochemical; conditions: class symbols per Table 18
Chain of KLK1 (P06870 25-262): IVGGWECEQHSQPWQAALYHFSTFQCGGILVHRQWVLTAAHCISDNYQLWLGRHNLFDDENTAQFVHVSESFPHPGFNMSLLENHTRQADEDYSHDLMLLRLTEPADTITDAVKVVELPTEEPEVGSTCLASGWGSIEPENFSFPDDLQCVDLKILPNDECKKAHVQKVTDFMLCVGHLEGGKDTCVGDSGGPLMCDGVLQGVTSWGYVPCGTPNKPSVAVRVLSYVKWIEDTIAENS
Summary of the method: (§2)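 Enzymatic activity was followed as release of fluorescence from a fluorogenic substrate over 5 min at 25° C, with test compound at various concentrations. The linear rate per minute was converted to % activity, and IC50 was taken as the concentration giving 50% inhibition of uninhibited enzyme activity.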

[6] = biological target: FXIa (Homo sapiens, UniProt P03951); test: Related protease inhibition: FXIa (fixed substrate concentration of 100 μM); assay type: biochemical; conditions: class symbols per Table 18
Chain of FXIa (P03951 388-625 limits assumed): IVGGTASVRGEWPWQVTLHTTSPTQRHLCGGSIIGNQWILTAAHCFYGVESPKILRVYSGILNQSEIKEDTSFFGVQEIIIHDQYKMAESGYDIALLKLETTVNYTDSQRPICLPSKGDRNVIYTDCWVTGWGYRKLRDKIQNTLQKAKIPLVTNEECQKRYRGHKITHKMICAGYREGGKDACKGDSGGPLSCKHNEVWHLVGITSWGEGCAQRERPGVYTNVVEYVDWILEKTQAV
Chain of FXIa (P03951 19-387 partner limits assumed): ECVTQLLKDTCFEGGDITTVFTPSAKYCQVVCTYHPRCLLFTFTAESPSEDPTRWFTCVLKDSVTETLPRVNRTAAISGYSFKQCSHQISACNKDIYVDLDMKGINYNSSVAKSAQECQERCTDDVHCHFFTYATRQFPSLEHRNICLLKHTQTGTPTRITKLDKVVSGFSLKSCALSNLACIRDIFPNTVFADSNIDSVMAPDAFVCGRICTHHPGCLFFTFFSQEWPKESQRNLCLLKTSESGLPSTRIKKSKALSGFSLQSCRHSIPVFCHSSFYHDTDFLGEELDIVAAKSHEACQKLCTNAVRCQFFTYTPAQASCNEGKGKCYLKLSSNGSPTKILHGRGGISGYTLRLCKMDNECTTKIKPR
Description: as §1

[7] = biological target: FXa (Homo sapiens, UniProt P00742); test: Related protease inhibition: FXa (fluorogenic substrate at Km); assay type: biochemical; conditions: class symbols per Table 18
Chain of FXa (P00742 235-488 limits assumed): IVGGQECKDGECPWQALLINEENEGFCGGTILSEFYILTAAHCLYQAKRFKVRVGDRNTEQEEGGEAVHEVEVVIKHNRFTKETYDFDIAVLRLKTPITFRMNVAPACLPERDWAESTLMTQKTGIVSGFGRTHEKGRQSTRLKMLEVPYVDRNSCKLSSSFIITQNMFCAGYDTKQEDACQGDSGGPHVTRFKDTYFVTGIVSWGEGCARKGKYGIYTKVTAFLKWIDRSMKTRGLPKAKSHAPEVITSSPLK
Chain of FXa (P00742 41-179 partner limits assumed): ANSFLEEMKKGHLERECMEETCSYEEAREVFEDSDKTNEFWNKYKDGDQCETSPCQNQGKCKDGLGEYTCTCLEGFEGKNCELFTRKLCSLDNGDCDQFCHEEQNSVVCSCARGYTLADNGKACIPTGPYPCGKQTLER
Summary of the method: as §2

[8] = biological target: Thrombin (Homo sapiens, UniProt P00734); test: Related protease inhibition: Thrombin (fluorogenic substrate at Km); assay type: biochemical; conditions: class symbols per Table 18
Description: as §1

[9] = Pharmacokinetics after single intravenous and single oral dose in rats; assay type: in vivo; conditions: rat, plasma, male Sprague-Dawley rats, single iv (nominal 1 mg/kg) and single po (nominal 5 mg/kg) dose; for half-life: Phoenix WinNonlin; for bioavailability: oral bioavailability, 10% DMSO/10% Cremophor EL/80% SWFI
Description: Pharmacokinetic studies of the compounds in Table 19 were performed to assess the pharmacokinetics following a single intravenous dose and a single oral dose in male Sprague-Dawley rats. Two rats were given a single intravenous dose of 1 mL/kg of a nominal 1 mg/ml (1 mg/kg) composition of test compound in 10% DMSO/10% Cremophor EL/80% SWFI vehicle. Two rats were given a single oral dose of 5 ml/kg of a nominal 1 mg/mL (5 mg/kg) composition of test compound in 10% DMSO/10% Cremophor EL/80% SWFI vehicle.
Following intravenous dosing, blood samples were collected over a period of 12 h. Sample times were 2, 5, 15 and 30 min then 1, 2, 4, 6, and 12 h. Following oral dosing, blood samples were collected over a period of 24 h. Sample times were 5, 15 and 30 min then 1, 2, 4, 6, 8, 12 and 24 h.
Following collection, blood samples were centrifuged and the plasma fraction analysed for concentration of test compound by LCMS. Oral bioavailability and half-life calculations from these studies were obtained using Phoenix WinNonlin (v8.0) and are shown below: […]

[10] = tested on: patients with type I/II hereditary angioedema (HAE); conditions: phase 2, monthly prophylactic subcutaneous treatment; cited from earlier work

Compound	IC50 [1] [µM]	IC50 [2] [µM]	IC50 [3] [µM]	IC50 [4] [µM]	IC50 [5] [µM]	IC50 [6] [µM]	IC50 [7] [µM]	IC50 [8] [µM]	half-life [9] [h]	bioavailability [9] [%]	preventing attacks [10]	tolerability [10]
Nc1nccc2c(NCC34CC(COC5CCn6ccnc6C5)(C3)C4)cccc12 (racemic) [Example 1002, N5-((3-(((5,6,7,8-Tetrahydroimidazo[1,2-a]pyridin-7-yl)oxy)methyl)bicyclo[1.1.1]pentan-1-yl)methyl)isoquinoline-1,5-diamine]	0.1 to 0.3	> 40	10 to 40	> 40	3 to 10	> 40	10 to 40	10 to 40				
Nc1nccc2c(NCC34CC(COC5CCn6ccnc6C5)(C3)C4)cccc12 (single isomer, unassigned) [Example 1002.1, (S*)-N5-((3-(((5,6,7,8-tetrahydroimidazo[1,2-a]pyridin-7-yl)oxy)methyl)bicyclo[1.1.1]pentan-1-yl)methyl)isoquinoline-1,5-diamine]	0.1 to 0.3			> 40	3 to 10		10 to 40	3 to 10	7.36	41		
Nc1nccc2c(NCC34CC(COc5ccn6ccnc6c5)(C3)C4)cccc12 [Example 1001, N5-((3-((Imidazo[1,2-a]pyridin-7-yloxy)methyl)bicyclo[1.1.1]pentan-1-yl)methyl)isoquinoline-1,5-diamine]	0.1 to 0.3	> 40	> 40	> 40	3 to 10	> 40	10 to 40	10 to 40	7.83	30.4		
Nc1nccc2c(NCC34COC(COc5ccn6ccnc6c5)(C3)C4)cccc12 [Example 2020, 5-N-[[1-(Imidazo[1,2-a]pyridin-7-yloxymethyl)-2-oxabicyclo[2.1.1]hexan-4-yl]methyl]isoquinoline-1,5-diamine]	0.01 to 0.1			> 40	3 to 10		> 40	> 40	10.5	19.9		
Nc1nccc2c(NCC34COC(COc5ccc6nccn6c5)(C3)C4)cccc12 [Example 2022, 5-N-[[1-(Imidazo[1,2-a]pyridin-6-yloxymethyl)-2-oxabicyclo[2.1.1]hexan-4-yl]methyl]isoquinoline-1,5-diamine]	0.1 to 0.3			> 40	3 to 10		> 40	> 40	3.13	42.6		
Nc1nccc2c(NCC34CC(COc5ccc6nccn6c5)(CO3)C4)cccc12 [Example 6602, 5-N-[[4-(Imidazo[1,2-a]pyridin-6-yloxymethyl)-2-oxabicyclo[2.1.1]hexan-1-yl]methyl]isoquinoline-1,5-diamine]	0.01 to 0.1	> 40	> 40	> 40	3 to 10		10 to 40	10 to 40	5.7	33.5		
Cc1cnc2ccc(OCC34COC(CNc5cccc6c(N)nccc56)(C3)C4)cn12 [Example 6624, 5-N-[[4-[(3-Methylimidazo[1,2-a]pyridin-6-yl)oxymethyl]-2-oxabicyclo[2.1.1]hexan-1-yl]methyl]isoquinoline-1,5-diamine]	0.01 to 0.1	> 40	10 to 40	10 to 40	1 to 3		1 to 3	> 40	6.64	14.8		
Nc1nccc2c(NCC34CC(COc5ccn6ccnc6c5)(CCO3)C4)cccc12 [Example 10901, N5-((5-((Imidazo[1,2-a]pyridin-7-yloxy)methyl)-2-oxabicyclo[3.1.1]heptan-1-yl)methyl)isoquinoline-1,5-diamine]	0.01 to 0.1			> 40	3 to 10		10 to 40	10 to 40	11.9	9.3		
Cn1ccc(OCC23CCOC(CNc4cccc5c(N)nccc45)(C2)C3)cc1=O [Example 10906, 4-((1-(((1-aminoisoquinolin-5-yl)amino)methyl)-2-oxabicyclo[3.1.1]heptan-5-yl)methoxy)-1-methylpyridin-2(1H)-one]	0.1 to 0.3	> 40	10 to 40	> 40	10 to 40		> 40	> 40	2.55	40.5		
Cn1ccc(OCC23CN(C(=O)OCc4ccccc4)C(CNc4cccc5c(N)nccc45)(C2)C3)cc1=O [Example 12001, benzyl 1-(((1-aminoisoquinolin-5-yl)amino)methyl)-4-(((1-methyl-2-oxo-1,2-dihydropyridin-4-yl)oxy)methyl)-2-azabicyclo[2.1.1]hexane-2-carboxylate]	0.01 to 0.1			> 40	3 to 10		> 40	> 40	1.14	8.2		
Cn1ccc(OCC23CN(C(=O)CCc4ccccc4)C(CNc4cccc5c(N)nccc45)(C2)C3)cc1=O [Example 12016, 4-((1-(((1-aminoisoquinolin-5-yl)amino)methyl)-2-(3-phenylpropanoyl)-2-azabicyclo[2.1.1]hexan-4-yl)methoxy)-1-methylpyridin-2(1H)-one]	0.01 to 0.1								1.08	0.4		
Garadacimab: "a monoclonal antibody inhibitory against FXIIa"											effective in preventing attacks	well tolerated
